Legend:
[1] = Pharmacokinetic Experiment in Rats; assay type: in vivo, SD rats; conditions: Intravenous (1 mg/kg), rat plasma
Description: 1.1 Test animals: Male SD rats, ca. 220 g, 6-8 weeks old, 6 rats/compound. The rats were purchased from […] EXPERIMENTAL ANIMALS CO., LTD. 1.2 Test design: On the day of the test, 6 SD rats were randomly divided into groups according to body weight. The rats were fasted but had access to water for 12-14 hours one day before administration. The rats were fed 4 hours after administration. Table 9. Information for administration Vehicle for intravenous administration: 5% DMA + 5% Solutol + 90% Saline; Vehicle for oral gavage: 0.5% MC; control compound […] is namely Compound 2 in patent WO2015110826A1, and was prepared according to the method described in the patent. Rats were anesthetized with isoflurane before and after administration. Blood (0.1 ml) was collected by orbital blood collection and placed in EDTAK2 centrifuge tube. The blood sample was centrifuged at 5000 rpm at 4°C for 10 min. The plasma was collected. […] All samples were stored at -80° C till analysis and detection. Table 10. Pharmacokinetic parameters of test compounds in rat plasma

[2] = test system: NE enzyme; conditions: background statement, no data; cited from earlier work
[3] = test system: LPS-induced acute lung injury; conditions: background statement, no data; cited from earlier work

Structure (SMILES)	CL [1] [mL/min/kg]	Vdss [1] [L/kg]	NE enzyme activity in rat bone marrow [2]	LPS-induced acute lung injury in mice [3]
Cn1c(=O)oc2ccc(-c3ccc(C[C@@H](C#N)NC(=O)[C@@H]4CNCCCO4)cc3)cc21 [INS 1007, reference compound]	2.08	0.738	–	–
Cn1c(=O)oc2ccc(-c3ccc(C[C@@H](C#N)NC(=O)[C@@H]4CNCCCO4)c(F)c3)cc21 [Compound A, (S)-N-((S)-1-cyano-2-(2-fluoro-4-(3-methyl-2-oxo-2,3-dihydrobenzo[d]oxazol-5-yl)phenyl)ethyl)-1,4-oxazepane-2-carboxamide]	1.66	0.753	significantly inhibit	mitigate
